# According to PMC12892976, “Alkylation-based optimization of antifungal FPPS inhibitors yields a potent, broad-spectrum lipophilic zoledronate derivative” (mBio, 2025):
# Assays:
# [1] = system: Cryptococcus deuterogattii; assay: checkerboard drug interaction (FICI, MICc); type: cell-based;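 also: simplified diagonal checkerboard screen pairing antifungal drugs with FPPS inhibitors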
# Experimental: (§1) Drug interactions between antifungals and FPPS inhibitors were investigated using a simplified checkerboard diagonal screening method ([45]). […] FICIs were determined according to the Loewe additivity model ([17]).
# [2] = system: Lomentospora prolificans; assay: MIC broth microdilution (CLSI); type: cell-based; conditions: Lomentospora prolificans 80-16-101-2445
# Experimental: (§2) Antifungal susceptibility was determined by broth microdilution according to the CLSI guidelines described in M27-Ed4 ([16]).
# [3] = system: Trichophyton rubrum; assay: MIC/MFC broth microdilution (CLSI); conditions: for MIC / MEC: Trichophyton rubrum R-218; for MFC / MIC: Trichophyton rubrum
# Experimental: (§3) Antifungal susceptibility was determined by broth microdilution according to the CLSI guidelines described in M27-Ed4 ([16]). […] MFC was determined by back-plating drug-treated cultures from MIC broths onto SDA plates. The MFC was defined as the lowest concentration from which no colonies could be cultured.
# [4] = system: Aspergillus flavus; assay: checkerboard drug interaction (FICI, MICc); type: cell-based;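 also: simplified diagonal checkerboard screen pairing azole antifungals with FPPS inhibitors, FICI calculated under the Loewe additivity model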
# Experimental: as §1
# [5] = system: Cryptococcus neoformans; assay: checkerboard drug interaction (FICI, MICc); type: cell-based;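 also: antifungal plus FPPS inhibitor pairs tested against Cryptococcus neoformans by simplified diagonal checkerboard screening, FICI computed under the Loewe additivity model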
# Experimental: as §1
# [6] = system: Candida glabrata; assay: checkerboard drug interaction (FICI, MICc); type: cell-based;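 also: simplified diagonal checkerboard screen pairing antifungals with FPPS inhibitors, FICI calculated under the Loewe additivity model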
# Experimental: as §1
# [7] = system: Aspergillus fumigatus; assay: MIC/MFC broth microdilution (CLSI); conditions: ATCC204305
# Experimental: as §3
# [8] = system: Candida parapsilosis; assay: MIC broth microdilution (CLSI); type: cell-based; conditions: Candida parapsilosis ATCC 22018
# Experimental: as §3
# [9] = system: Cryptococcus neoformans; assay: MIC/MFC broth microdilution (CLSI); conditions: for MIC / MEC: Cryptococcus neoformans H99; for MFC / MIC: Cryptococcus neoformans;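 as to all read-outs here: susceptibility testing followed the CLSI M27-Ed4 broth microdilution document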
# Experimental: as §3
# [10] = system: Aspergillus udagawae; assay: MIC broth microdilution (CLSI); type: cell-based; conditions: Aspergillus udagawae 8G81
# Experimental: as §2
# [11] = system: Cryptococcus deuterogattii; assay: MIC/MFC broth microdilution (CLSI); conditions: for MIC / MEC: Cryptococcus deuterogattii R265; for MFC / MIC: Cryptococcus deuterogattii;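 as to all read-outs here: broth microdilution per CLSI M27-Ed4. MFC is the lowest concentration yielding no colonies when MIC broths are subcultured onto SDA plates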
# Experimental: as §3
# [12] = system: Aspergillus fumigatus; assay: checkerboard drug interaction (FICI, MICc); type: cell-based;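 also: simplified diagonal checkerboard screen pairing antifungals with FPPS inhibitors against Aspergillus fumigatus, with FICI calculated under the Loewe additivity model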
# Experimental: as §1
# [13] = system: Trichophyton rubrum; assay: checkerboard drug interaction (FICI, MICc); type: cell-based;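 also: simplified diagonal checkerboard screen pairing azole antifungals with FPPS inhibitors, FICI calculated under the Loewe additivity model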
# Experimental: as §1
# [14] = system: Saccharomyces cerevisiae; assay: MIC/MFC broth microdilution (CLSI); type: cell-based; conditions: Saccharomyces cerevisiae S288c
# Experimental: as §3
# [15] = system: Candida glabrata; assay: MIC/MFC broth microdilution (CLSI); conditions: for MIC / MEC: Candida glabrata CBS138 (ATCC 2001); for MFC / MIC: Nakaseomyces glabratus, CBS138;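 as to all read-outs here: broth microdilution following CLSI M27-Ed4, MFC taken as the lowest drug level yielding no growth once MIC wells were subcultured on SDA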
# Experimental: as §3
# [16] = system: Aspergillus flavus; assay: MIC/MFC broth microdilution (CLSI); conditions: ATCC204304
# Experimental: as §3
# [17] = system: Saccharomyces cerevisiae; assay: checkerboard drug interaction (FICI, MICc); type: cell-based;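 also: simplified diagonal checkerboard screen pairing antifungals with FPPS inhibitors, FICI calculated under the Loewe additivity model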
# Experimental: as §1
# [18] = system: Candida albicans; assay: checkerboard drug interaction (FICI, MICc); type: cell-based;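 also: antifungal plus FPPS inhibitor combinations on Candida albicans tested by a simplified diagonal checkerboard screen, with FICI calculated under the Loewe additivity model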
# Experimental: as §1
# [19] = system: Candida albicans; assay: MIC/MFC broth microdilution (CLSI); type: cell-based; conditions: Candida albicans SC5314
# Experimental: as §3
# [20] = system: eight fungal species; assay: MIC/MFC summary across the eight fungal species of Table 1; type: cell-based; conditions: for MFC: across eight species, read-out: Geometric mean MFC; for MIC: read-out: Geometric mean MIC
# Experimental: The antifungal activity of these compounds was evaluated according to CLSI guidelines ([16]).
smiles,measurement,setting,value
"CC[C@H](C)C[C@H](C)CCCCCCCCC(=O)N[C@H]1C[C@@H](O)[C@@H](NCCN)NC(=O)[C@@H]2[C@@H](O)CCN2C(=O)[C@H]([C@H](O)CCN)NC(=O)[C@H]([C@H](O)[C@@H](O)c2ccc(O)cc2)NC(=O)[C@@H]2C[C@@H](O)CN2C(=O)[C@H]([C@@H](C)O)NC1=O [CAS, caspofungin]",antifungal MICc,[1]; in combination with 10-ZOL,4
same,antifungal MICc,[1]; in combination with ZOL,16
same,MIC / MEC,[2],>16 µg/mL
same,MIC / MEC,[3],0.25 µg/mL
same,antifungal MICc,[4]; in combination with 10-ZOL,2
same,antifungal MICc,[4]; in combination with ZOL,4
same,antifungal MICc,[5]; in combination with 10-ZOL,2
same,antifungal MICc,[5]; in combination with ZOL,16
same,antifungal MICc,[6]; in combination with 10-ZOL,0.125
same,antifungal MICc,[6]; in combination with ZOL,0.25
same,MIC / MEC,[7],16 µg/mL
same,MIC / MEC,[8],1 µg/mL
same,MIC / MEC,[9],8 µg/mL
same,MIC / MEC,[10],2 µg/mL
same,MIC / MEC,[11],16 µg/mL
same,antifungal MICc,[12]; in combination with 10-ZOL,8
same,antifungal MICc,[12]; in combination with ZOL,8
same,antifungal MICc,[13]; in combination with 10-ZOL,0.25
same,antifungal MICc,[13]; in combination with ZOL,0.063
same,MIC / MEC,[14],0.5 µg/mL
same,MIC / MEC,[15],0.13 µg/mL
same,MIC / MEC,[16],8 µg/mL
same,antifungal MICc,[17]; in combination with 10-ZOL,0.125
same,antifungal MICc,[17]; in combination with ZOL,0.5
same,antifungal MICc,[18]; in combination with 10-ZOL,0.063
same,antifungal MICc,[18]; in combination with ZOL,0.25
same,MIC / MEC,[19],0.13 µg/mL
"CCC(C)n1ncn(-c2ccc(N3CCN(c4ccc(OCC5COC(Cn6cncn6)(c6ccc(Cl)cc6Cl)O5)cc4)CC3)cc2)c1=O (stereo not drawn) [ITR, itraconazole]",antifungal MICc,[1]; in combination with 10-ZOL,0.125
same,antifungal MICc,[1]; in combination with ZOL,0.25
same,MIC / MEC,[2],4 µg/mL
same,MFC,[3],> 16 µg/mL
same,MIC,[3],8 µg/mL
same,MIC / MEC,[3],8 µg/mL
same,antifungal MICc,[4]; in combination with 10-ZOL,0.5
same,antifungal MICc,[4]; in combination with ZOL,0.5
same,antifungal MICc,[5]; in combination with 10-ZOL,0.063
same,antifungal MICc,[5]; in combination with ZOL,0.125
same,antifungal MICc,[6]; in combination with 10-ZOL,0.031
same,antifungal MICc,[6]; in combination with ZOL,0.016
same,MFC,[7],4 µg/mL
same,MIC,[7],0.125 µg/mL
same,MIC / MEC,[7],0.13 µg/mL
same,MIC / MEC,[8],0.25 µg/mL
same,MFC,[20],3.7 µg/mL
same,MIC,[20],0.5 µg/mL
same,MFC,[9],4 µg/mL
same,MIC,[9],0.5 µg/mL
same,MIC / MEC,[9],0.5 µg/mL
same,MIC / MEC,[10],1 µg/mL
same,MFC,[11],4 µg/mL
same,MIC,[11],1 µg/mL
same,MIC / MEC,[11],1 µg/mL
same,antifungal MICc,[12]; in combination with 10-ZOL,0.063
same,antifungal MICc,[12]; in combination with ZOL,0.063
same,antifungal MICc,[13]; in combination with 10-ZOL,1
same,antifungal MICc,[13]; in combination with ZOL,2
same,MFC,[14],1 µg/mL
same,MIC,[14],0.25 µg/mL
same,MIC / MEC,[14],0.25 µg/mL
same,MIC / MEC,[15],0.13 µg/mL
same,MFC,[15],4 µg/mL
same,MIC,[15],0.125 µg/mL
same,MFC,[16],2 µg/mL
same,MIC,[16],0.5 µg/mL
same,MIC / MEC,[16],0.5 µg/mL
same,antifungal MICc,[17]; in combination with 10-ZOL,0.125
same,antifungal MICc,[17]; in combination with ZOL,0.063
same,antifungal MICc,[18]; in combination with 10-ZOL,0.25
same,antifungal MICc,[18]; in combination with ZOL,0.25
same,MFC,[19],2 µg/mL
same,MIC,[19],0.25 µg/mL
same,MIC / MEC,[19],0.25 µg/mL
"CC(=O)N1CCN(c2ccc(OCC3COC(Cn4ccnc4)(c4ccc(Cl)cc4Cl)O3)cc2)CC1 (stereo not drawn) [KET, ketoconazole]",antifungal MICc,[1]; in combination with 10-ZOL,0.063
same,antifungal MICc,[1]; in combination with ZOL,0.5
same,MIC / MEC,[2],4 µg/mL
same,MFC,[3],> 16 µg/mL
same,MIC,[3],4 µg/mL
same,MIC / MEC,[3],4 µg/mL
same,antifungal MICc,[4]; in combination with 10-ZOL,1
same,antifungal MICc,[4]; in combination with ZOL,2
same,antifungal MICc,[5]; in combination with 10-ZOL,0.063
same,antifungal MICc,[5]; in combination with ZOL,0.125
same,antifungal MICc,[6]; in combination with 10-ZOL,0.016
same,antifungal MICc,[6]; in combination with ZOL,0.031
same,MFC,[7],16 µg/mL
same,MIC,[7],4 µg/mL
same,MIC / MEC,[7],4 µg/mL
same,MIC / MEC,[8],0.03 µg/mL
same,MFC,[20],6.7 µg/mL
same,MIC,[20],1.3 µg/mL
same,MFC,[9],4 µg/mL
same,MIC,[9],0.25 µg/mL
same,MIC / MEC,[9],0.25 µg/mL
same,MIC / MEC,[10],8 µg/mL
same,MFC,[11],8 µg/mL
same,MIC,[11],4 µg/mL
same,MIC / MEC,[11],4 µg/mL
same,antifungal MICc,[12]; in combination with 10-ZOL,0.25
same,antifungal MICc,[12]; in combination with ZOL,2
same,antifungal MICc,[13]; in combination with 10-ZOL,1
same,antifungal MICc,[13]; in combination with ZOL,1
same,MFC,[14],8 µg/mL
same,MIC,[14],1 µg/mL
same,MIC / MEC,[14],1 µg/mL
same,MIC / MEC,[15],0.5 µg/mL
same,MFC,[15],4 µg/mL
same,MIC,[15],0.5 µg/mL
same,MFC,[16],8 µg/mL
same,MIC,[16],2 µg/mL
same,MIC / MEC,[16],2 µg/mL
same,antifungal MICc,[17]; in combination with 10-ZOL,0.25
same,antifungal MICc,[17]; in combination with ZOL,0.25
same,antifungal MICc,[18]; in combination with 10-ZOL,0.125
same,antifungal MICc,[18]; in combination with ZOL,0.25
same,MFC,[19],0.25 µg/mL
same,MIC,[19],0.0625 µg/mL
same,MIC / MEC,[19],0.06 µg/mL
C[C@@H](c1ncncc1F)[C@](O)(Cn1cncn1)c1ccc(F)cc1F [VOR],antifungal MICc,[1]; in combination with 10-ZOL,0.125
same,antifungal MICc,[1]; in combination with ZOL,0.063
same,MIC / MEC,[2],16 µg/mL
same,MIC / MEC,[3],1 µg/mL
same,antifungal MICc,[4]; in combination with 10-ZOL,0.06
same,antifungal MICc,[4]; in combination with ZOL,0.25
same,antifungal MICc,[5]; in combination with 10-ZOL,0.063
same,antifungal MICc,[5]; in combination with ZOL,0.0625
same,antifungal MICc,[6]; in combination with 10-ZOL,0.25
same,antifungal MICc,[6]; in combination with ZOL,0.0625
same,MIC / MEC,[7],0.5 µg/mL
same,MIC / MEC,[8],0.13 µg/mL
same,MIC / MEC,[9],0.13 µg/mL
same,MIC / MEC,[10],1 µg/mL
same,MIC / MEC,[11],0.25 µg/mL
same,antifungal MICc,[12]; in combination with 10-ZOL,0.25
same,antifungal MICc,[12]; in combination with ZOL,2
same,antifungal MICc,[13]; in combination with 10-ZOL,0.25
same,antifungal MICc,[13]; in combination with ZOL,0.25
same,MIC / MEC,[14],0.5 µg/mL
same,MIC / MEC,[15],0.25 µg/mL
same,MIC / MEC,[16],0.5 µg/mL
same,antifungal MICc,[17]; in combination with 10-ZOL,0.25
same,antifungal MICc,[17]; in combination with ZOL,0.25
same,antifungal MICc,[18]; in combination with 10-ZOL,0.063
same,antifungal MICc,[18]; in combination with ZOL,0.125
same,MIC / MEC,[19],0.13 µg/mL
